From US20070037785A1, “Novel dipeptidyl peptidase IV inhibitors used for functionally influencing different cells and treating immunological, infammatory, neuronal, and other diseases” (priority 2003, published 2007) come the findings set out here.

Sequence of dipeptidyl peptidase IV (P27487 whole entry, species assumed): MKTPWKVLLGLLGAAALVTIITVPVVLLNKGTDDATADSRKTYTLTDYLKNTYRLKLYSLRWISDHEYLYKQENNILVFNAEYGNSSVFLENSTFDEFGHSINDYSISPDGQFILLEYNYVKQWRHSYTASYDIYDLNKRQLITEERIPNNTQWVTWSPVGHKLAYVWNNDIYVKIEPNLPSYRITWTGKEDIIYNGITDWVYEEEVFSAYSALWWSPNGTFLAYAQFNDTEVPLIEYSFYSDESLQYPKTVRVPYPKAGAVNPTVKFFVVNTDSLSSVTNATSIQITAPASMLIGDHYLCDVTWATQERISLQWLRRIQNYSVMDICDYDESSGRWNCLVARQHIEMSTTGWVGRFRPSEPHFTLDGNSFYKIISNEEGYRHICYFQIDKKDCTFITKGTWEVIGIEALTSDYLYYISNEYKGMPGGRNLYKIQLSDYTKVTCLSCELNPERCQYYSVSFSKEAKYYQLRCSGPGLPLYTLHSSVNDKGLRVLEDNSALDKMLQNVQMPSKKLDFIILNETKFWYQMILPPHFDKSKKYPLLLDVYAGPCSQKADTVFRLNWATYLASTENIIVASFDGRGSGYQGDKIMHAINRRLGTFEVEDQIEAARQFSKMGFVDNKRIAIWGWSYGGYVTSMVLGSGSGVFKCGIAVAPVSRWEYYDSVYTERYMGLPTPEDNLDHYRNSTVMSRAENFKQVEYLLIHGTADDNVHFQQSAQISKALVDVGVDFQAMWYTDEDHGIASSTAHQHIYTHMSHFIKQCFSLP

The first assay has as its target dipeptidyl peptidase IV (Homo sapiens, UniProt P27487). Briefly: biochemical. The following applies: values marked with "*" are ID50 values; read-out: IC50DPIV, values marked with "*" = ID50.
Turning to `CN(C)c1ccc(N2CC(C)(C)C2=O)cc1` [D1.001], the IC50 came to 1.2 µM.

With `O=C(Nc1ccccc1CC(=O)N1CCCNCC1)c1cccnc1Sc1ccccc1` [D1.002], the IC50 is 1.4 µM.

With `CCOC(=O)O/N=C(N)/C(N)=N/OC(=O)OCC` [D2.006], the IC50 came out at 133 µM.

Turning to `CCOC(=O)n1ccc(C(=O)Nc2ccccn2)n1` [D2.007], the IC50 was 148 µM.

As for `Cc1ccccc1NC(=O)C(=O)N/N=C/c1cccc(Cl)c1` [D2.008], the IC50 was found to be 275 µM.

`CCC(=O)Oc1cccc(N2C(=O)C3C4C=CC(C3C2=O)C2C(=O)N(c3cccc(OC(=O)CC)c3)C(=O)C42)c1` (centres unmarked) [D3.045]: the IC50 amounted to 4.2 µM.

Staying with this assay, now noted: values without "*" = IC-50; read-out: IC50DPIV.
In the case of `O=C1NCCCCC1Nc1ccc(N2C(=O)CCCC2=O)cc1[N+](=O)[O-]` (centres unmarked) [D1.003], the IC50 was 34.1 µM.

As for `COc1ccc(C(=O)CS/C2=N/CCCCCC2)cc1` [D1.004], the IC50 was found to be 36.5 µM.

Consider `O=C1/C(=N\NC(=S)Nc2ccccc2F)c2cc(S(=O)(=O)N3CCOCC3)ccc2N1Cc1ccc(Cl)cc1` [D2.004], for which the IC50 was determined as 33.4 µM.

With `CCOC(=O)c1n[nH]c2c1C(=O)N(c1ccc([N+](=O)[O-])cc1)C2=O` [D2.005], the IC50 came out at 54.5 µM.

With `CC(C)(C)S(=O)(=O)c1ccc2nc3c(n2c1)CCCC3` [D3.003], the IC50 was found to be 15.6 µM.

Consider `CN(C)CCNc1nc2c(c(=O)n(C)c(=O)n2C)n1Cc1ccccc1Cl` [D3.004], for which the IC50 amounted to 7.5 µM.

Regarding `COc1cc2c(cc1OC)CC(C)(C)NC2` [D3.005], the IC50 was found to be 6 µM.

`COC(=O)C1=C(N)N2C(=O)CSC2=C(C(=O)OC)C1` [D3.008]: the IC50 worked out at 34.1 µM.

Take `CCOC(=O)C1=C2SCC(=O)N2C(N)=C(C#N)C1` [D3.009]: the IC50 was determined as 14.1 µM.

With `Nc1nonc1-n1nnc(C(=O)NN=C2c3ccccc3-c3ccccc32)c1-c1ccccc1` [D3.011], the IC50 was found to be 10.1 µM.

On to `Cc1cccc(-n2c(=O)c3c4c(sc3n3c(SC(C)C(=O)N5CCOCC5)nnc23)COC(C(C)C)C4)c1` (centres unmarked) [D3.012], for which the IC50 came to 10.1 µM.

On to `CCSc1nnc2n(-c3ccc(OC)cc3)c(=O)c3c4c(sc3n12)CCCC4` [D3.013], for which the IC50 was determined as 10.8 µM.

Consider `Brc1cccc(/C=N/Nc2nnc3c(n2)[nH]c2ccccc23)c1` [D3.015], for which the IC50 is 12.2 µM.

For `O=C1c2ccccc2-c2c1[n+]([O-])c1c([n+]2[O-])CCCC1` [D3.017], the IC50 turned out to be 14 µM.

With `O=C(Nc1ccc(O)c(-c2nc3ccccc3s2)c1)c1ccc([N+](=O)[O-])o1` [D3.018], the IC50 came out at 14.4 µM.

As for `Cc1ccc(S(=O)(=O)CNC(=S)c2ccc3ccccc3c2)cc1` [D3.019], the IC50 is 14.5 µM.

On to `Cc1ccccc1N1C(=O)c2sc3nc4c(c(=O)n3c2C1=O)CCC4` [D3.020], for which the IC50 turned out to be 15.2 µM.

As to `CCCC(=O)O/N=C1\C(=O)N(c2ccccc2)c2ccccc21` [D3.021], the IC50 worked out at 15.2 µM.

With `CC(C)C1Cc2c(sc3c2c(=O)n(Cc2ccccc2)c2nnc(SCC(=O)O)n32)CO1` (centres unmarked) [D3.024], the IC50 came out at 18.9 µM.

Regarding `CCC(=O)Oc1ccc(C(=O)Nc2ccc(OCC(=O)O)cc2)cc1` [D3.025], the IC50 is 23.8 µM.

For `COc1cc2c(cc1OC)CC(C)(C)N=C2` [D3.026], the IC50 is 20.2 µM.

As for `CCCn1c(N2CCN(CC(=O)c3c(C)n(C)c4ccccc34)CC2)nc2c1c(=O)[nH]c(=O)n2C` [D3.027], the IC50 was determined as 15.2 µM.

For the compound `COc1cc2c(cc1OC)C13CCN4CC5=C(C6=C7CN8CCC9%10c%11cc(OC)c(OC)cc%11N%11C(=O)CC(O6)C(C7CC89)C%11%10)OC6CC(=O)N2C1C6C5CC43` (centres unmarked) [D3.029], the IC50 worked out at 22.9 µM.

For the compound `O=C1c2ccc(-c3nc4ccccc4c(=O)o3)cc2C(=O)N1c1ccc(Cc2ccc(N3C(=O)c4ccc(-c5nc6ccccc6c(=O)o5)cc4C3=O)cc2)cc1` [D3.032], the IC50 was 27.2 µM.

For the compound `Cc1nnc(SCC(=O)OCN2C(=O)c3ccccc3C2=O)[nH]1` [D3.033], the IC50 stood at 27.5 µM.

As for `N#CC1=C(N)C(C#N)(C#N)C(c2ccccc2)C2CNCC=C12` (centres unmarked) [D3.035], the IC50 came out at 52.3 µM.

Consider `N#Cc1c(NC(=O)C(C(F)(F)F)C(F)(F)F)sc2c1CCC2` [D3.038], for which the IC50 worked out at 30.9 µM.

As for `COc1cc2c(cc1OC)C1(CCCC1)CN(CC#N)C2` [D3.039], the IC50 amounted to 31.4 µM.

For `N#Cc1c(NC(=O)c2ccccc2)sc2c1CCCCC2` [D3.042], the IC50 amounted to 33 µM.

Regarding `CCOC(=O)c1c(C)oc2c1c1c(c3ccccc32)OCN(C2CCS(=O)(=O)C2)C1` (centres unmarked) [D3.046], the IC50 came to 34.2 µM.

Take `CCC(=O)Oc1ccc2c(c1)OC1(OC(C)=O)OC(C)CC1=C2C` (centres unmarked) [D3.047]: the IC50 was determined as 37.4 µM.

For `O=C(Nc1c[nH]c(=O)[nH]c1=O)c1ccc2c(c1)C(=O)N(c1ccc(C(=O)c3ccccc3)cc1)C2=O` [D3.048], the IC50 was determined as 38.2 µM.

For `N#Cc1c(NC(=O)C(C(F)(F)F)C(F)(F)F)sc2c1CCCC2` [D3.049], the IC50 amounted to 39.5 µM.

Regarding `O=C1c2ccccc2C(=O)N1c1cccc(-c2csc(N3N=C(c4cccc([N+](=O)[O-])c4)CC3c3ccc(F)cc3)n2)c1` (centres unmarked) [D3.050], the IC50 turned out to be 39.8 µM.

`O=C1C(Cc2c[nH]c3ccccc23)NC(=S)N1c1ccccc1` (centres unmarked) [D3.051]: the IC50 worked out at 40.2 µM.

For the compound `COC(=O)C1=C2SCC(=O)N2C(N)=C(C#N)C1` [D3.052], the IC50 worked out at 40.5 µM.

`CN1CCN(c2nc3c(c(=O)n(C)c(=O)n3C)n2Cc2cccc(F)c2)CC1` [D3.054]: the IC50 worked out at 41.2 µM.

`O=C(/C=C/c1ccco1)Nc1ccc2oc(-c3cccc(Cl)c3Cl)nc2c1` [D3.055]: the IC50 came to 42.4 µM.

`N#CC1=C(N)C(C#N)(C#N)C(c2ccccc2)C2CNCC=C12` (centres unmarked) [D3.056]: the IC50 was determined as 42.7 µM.

With `O=C1NC23NC(=O)NC2(N1)c1ccccc1-c1ccccc13` (centres unmarked) [D3.057], the IC50 was 43.1 µM.

On to `Cn1c(=O)[nH]c(=O)c2c1nc(NCCO)n2Cc1ccccc1Cl` [D3.058], for which the IC50 came out at 44 µM.

Consider `CC(C)(C)C(=O)N1CCN(c2cc(Cl)nc(SCC(=O)N3CCN(Cc4ccc5c(c4)OCO5)CC3)n2)CC1` [D3.059], for which the IC50 stood at 45.6 µM.

Regarding `CCC(=O)O/N=C(/C)c1cc2ccccc2oc1=O` [D3.060], the IC50 is 45.9 µM.

`Cc1nc2c(sc(=S)n2C)c(=O)[nH]1` [D3.061]: the IC50 worked out at 46 µM.

For `CC(C)c1ccc2c(c1)[C@@H]1C=CC[C@@H]1[C@H](c1ccc(C(=O)O)cc1)N2` [D3.062], the IC50 came to 46.4 µM.

Take `Cn1c(=O)n(Cc2ccccc2)c(=O)c2c1nc(N1CCNCC1)n2Cc1ccccc1` [D3.064]: the IC50 amounted to 48.3 µM.

Take `CC(C)C1Cc2c(sc3nc(SCC(=O)c4ccccc4)n(Cc4ccccc4)c(=O)c23)CO1` (centres unmarked) [D3.067]: the IC50 amounted to 52.4 µM.

With `CCOC(=O)c1c(N2C(=O)C3ON(c4ccccc4)C(c4ccc([N+](=O)[O-])cc4)C3C2=O)sc2c1CCCC2` (centres unmarked) [D3.069], the IC50 was determined as 54.1 µM.

Take `Nc1ccc2c(c1)C/C(=C\c1ccco1)C2=O` [D3.070]: the IC50 was determined as 27.5 µM.

On to `COc1cc(C)ccc1N(CCCN1C(=O)c2cccc3cccc(c23)C1=O)C(=O)c1cc(C)cc(C)c1` [D3.073], for which the IC50 was 55.4 µM.

In the case of `CC(C)C1=CC23CCC4C(C)(C(=O)O)CCCC4(C)C2CC1C1C(=O)N(c2cccc(O)c2)C(=O)C13` (centres unmarked) [D3.074], the IC50 was 55.4 µM.

For the compound `COc1cc2c(cc1OC)CC1(CCCC1)N=C2` [D3.077], the IC50 came out at 59.1 µM.

Take `CC(=O)Oc1cc2oc(=O)cc(C)c2cc1OC(C)=O` [D3.078]: the IC50 came to 59.2 µM.
